Results taken from US8071580B2, “Medium-chain length fatty alcohols as stimulators of hematopoiesis” (Prometic Biosciences Inc., priority 2004, dated 2011).

Key:
[1] = test system: Female C57BL/6 mice immunosuppressed with cyclophosphamide; assay: Chemoprotection studies: in vivo induction of immune cell proliferation or protection in cyclophosphamide-immunosuppressed mice; conditions: oral pre-treatment day -3, -2, -1, CY 200 mg/kg i.v. day 0, sacrifice day +5; for peripheral white blood cell count: FIG. 2; for spleen red cell count: FIG. 3
Experimental: Chemoprotection Studies: In vivo Induction of Immune Cell Proliferation or Protection By Medium-Chain Fatty Alcohol.
Female C57BL/6 mice, 6 to 8 weeks old, were immunosuppressed by treatment with 200 mg/kg of cyclophosphamide (CY) administered intravenously at day 0. To examine the immunoprotective effect of the medium-chain fatty alcohol, mice were pre-treated at day −3, −2 and −1 by oral administration of the compound. Mice were sacrificed at day +5 by cardiac puncture and cervical dislocation. After the sacrifice, tissues were crushed in PBS buffer and cells were counted on a hemacytometer.

[2] = test system: rats; conditions: oral; cited from earlier work

Structure (SMILES)	peripheral white blood cell count [1]	spleen red cell count [1]	bone marrow white cell count ([1]; FIG. 1)	LD50 [2]
CCCCCCCCCCCCO [dodecanol]	nonsignificant increase	significant increase	–	–
CCCCCCCCCCO [decanol]	nonsignificant increase	significant increase	significant increase	4.7 g/kg body weight
CCCCCCCCO [octanol]	nonsignificant increase	significant increase	–	3.2 g/kg body weight
